# According to ChEMBL document CHEMBL5390278, “PPARα/γ-Targeting Amorfrutin Phytocannabinoids from Aerial Parts of Glycyrrhiza foetida” (J Nat Prod, 2023):
# Calls of active or inactive are those of the source. The calls are words filed in the database; no cut-off is given here.
# Legend:
# COS-7 = test: Cytotoxicity against African green monkey COS-7 cells assessed as cell viability at 1 to 30 uM incubated for 24 hrs by MTT assay; assay type: toxicity, cell-based; conditions: chlorocebus aethiops, cos-7, 24 h, dose 1-30 µM
# [1] = target: T1, Peroxisome proliferator-activated receptor alpha (Homo sapiens) (UniProt Q07869); test: Agonist activity at human PPAR alpha transfected in African green monkey COS-7 cells co-transfected with CMX-Gal4 fused hPPARalpha/TK-MH100x4-Luc/renilla luciferase assessed as fold increase in luciferase activity at 10 uM incubated for 24 hrs by Dual-Glo luciferase assay; assay type: cell-based; conditions: filed as agonist
# T1 sequence (whole entry): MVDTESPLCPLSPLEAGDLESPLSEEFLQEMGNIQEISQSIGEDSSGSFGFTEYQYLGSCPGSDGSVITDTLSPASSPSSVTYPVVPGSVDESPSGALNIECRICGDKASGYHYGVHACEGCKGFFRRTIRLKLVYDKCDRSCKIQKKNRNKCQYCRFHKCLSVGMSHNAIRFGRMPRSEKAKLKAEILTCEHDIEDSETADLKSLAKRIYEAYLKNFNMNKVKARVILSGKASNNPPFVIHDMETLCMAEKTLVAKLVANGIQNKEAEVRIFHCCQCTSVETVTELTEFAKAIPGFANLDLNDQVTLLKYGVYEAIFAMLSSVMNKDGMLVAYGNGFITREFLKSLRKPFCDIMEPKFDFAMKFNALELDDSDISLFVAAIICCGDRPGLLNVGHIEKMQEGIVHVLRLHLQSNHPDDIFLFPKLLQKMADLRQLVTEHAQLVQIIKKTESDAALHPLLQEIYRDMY
# [2] = target: T2, Peroxisome proliferator-activated receptor gamma (Homo sapiens) (UniProt P37231); test: Agonist activity at human PPAR gamma transfected in African green monkey COS-7 cells co-transfected with CMX-Gal4 fused hPPARgamma/TK-MH100x4-Luc/renilla luciferase at 10 uM incubated for 24 hrs by Dual-Glo luciferase assay; assay type: cell-based; conditions: filed as agonist
# T2 sequence (whole entry): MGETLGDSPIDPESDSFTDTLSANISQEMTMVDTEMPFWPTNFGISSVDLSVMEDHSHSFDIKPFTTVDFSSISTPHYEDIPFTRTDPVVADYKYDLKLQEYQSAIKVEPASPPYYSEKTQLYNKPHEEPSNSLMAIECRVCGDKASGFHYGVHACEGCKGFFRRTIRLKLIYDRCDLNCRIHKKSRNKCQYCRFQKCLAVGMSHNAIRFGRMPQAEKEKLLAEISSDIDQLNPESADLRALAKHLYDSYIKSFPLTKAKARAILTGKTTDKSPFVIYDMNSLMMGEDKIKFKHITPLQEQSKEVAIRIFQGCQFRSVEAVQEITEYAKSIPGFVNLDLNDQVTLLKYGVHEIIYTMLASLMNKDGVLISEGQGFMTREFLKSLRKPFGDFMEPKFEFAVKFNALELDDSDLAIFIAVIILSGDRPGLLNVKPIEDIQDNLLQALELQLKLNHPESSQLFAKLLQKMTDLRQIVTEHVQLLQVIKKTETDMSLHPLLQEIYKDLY
# [3] = target: T2, Peroxisome proliferator-activated receptor gamma (Homo sapiens); test: Agonist activity at human PPAR gamma transfected in African green monkey COS-7 cells co-transfected with CMX-Gal4 fused hPPARgamma/TK-MH100x4-Luc/renilla luciferase assessed as fold increase in luciferase activity at 10 uM incubated for 24 hrs by Dual-Glo luciferase assay; assay type: cell-based
fold change (FC) [1],Compound,Activity (COS-7),other results
–,CCCCCc1cc(OC)c(CC=C(C)C)c(O)c1C(=O)O,Toxic,–
–,COc1cc(/C=C/c2ccccc2)cc(O)c1CC=C(C)C,Toxic,–
5,COc1cc(CCc2ccccc2)c(C(=O)O)c2occc12,–,–
–,CC(C)=CCc1c(O)cc(CCc2ccccc2)c(CC=C(C)C)c1O,Toxic,–
–,COc1cc(/C=C/c2ccccc2)cc(OC)c1CC=C(C)C,Toxic,–
5,CCCCCc1cc(OC)c2c(c1C(=O)O)OC(C(C)(C)O)C2 (racemic),–,–
–,COc1cc(CCc2ccccc2)cc(OC)c1CC=C(C)C,Toxic,–
–,COc1cc(CCc2ccccc2)c(C(=O)O)c2c1[C@H](OC)[C@@H](C(C)(C)O)O2,Toxic,–
5,C=C(C)C(O)Cc1c(OC)cc(CCc2ccccc2)c(C(=O)O)c1O (racemic),–,Activity [2]: Active
5,COc1cc(CCc2ccccc2)c(C(=O)O)c(O)c1CC=C(C)C,–,fold change (FC) [3]: > 20; Activity [2]: Active
5,CCCCCc1cc(O)c(CC=C(C)C)c(O)c1CC=C(C)C,–,–
–,COc1cc(C#Cc2ccccc2)cc(OC)c1CC=C(C)C,Toxic,–
–,COc1cc(CCc2ccccc2)cc(O)c1CC=C(C)C,Toxic,–
–,COc1c(CC=C(C)C)c(O)c(C(=O)O)c(CCc2ccccc2)c1CC=C(C)C,–,Activity [2]: Active
–,CC(C)=CCc1c(O)cc(CCc2ccccc2)cc1O,Toxic,–

Compound,fold change (FC) [1],Activity (COS-7),other results
C=C(C)C(Cc1c(OC)cc(CCc2ccccc2)c(C(=O)O)c1O)OO (racemic),5,–,Activity [2]: Active
C=C(C)C(O)Cc1c(OC)cc(CCCCC)c(C(=O)O)c1O (racemic),5,–,Activity [2]: Active
